From US20220402882A1, “HERBICIDAL COMPOUNDS” (SYNGENTA CROP PROTECTION AG, priority 2019, published 2022) come the findings set out here.

Molecules are shown by their SMILES.

What all share (format): in vivo
Common to all, as to settings: 125 g/h, evaluated after 13 days

In assay [1] the test system is Abutilon theophrasti (ABUTH). In words: Post-emergence glasshouse herbicide test. As to the method: (§1) Seeds of a variety of test species are sown in standard soil in pots (Lolium perenne (LOLPE), Amaranthus retoflexus (AMARE), Abutilon theophrasti (ABUTH), Setaria faberi (SETFA), Echinochloa crus-galli (ECHCG), Ipomoea hederacea (IPOHE)). After cultivation for one day (pre-emergence) or after 8 days cultivation (post-emergence) under controlled conditions in a glasshouse (at 24/16° C., day/night; 14 hours light; 65% humidity), the plants are sprayed with an aqueous spray solution derived from the formulation of the technical active ingredient in acetone/water (50:50) solution containing 0.5% Tween™ 20 (polyoxyethelyene sorbitan monolaurate, CAS RN 9005-64-5). Compounds are applied at 125 g/h unless otherwise indicated. The test plants are then grown in a glasshouse under controlled conditions in a glasshouse (at 24/16° C., day/night; 14 hours light; 65% humidity) and watered twice daily. After 13 days for pre- and post-emergence, the test is evaluated for the percentage damage caused to the plant. The biological activities are shown in the following table on a five-point scale (5=80-100%; 4=60-79%; 3=40-59%; 2=20-39%; 1=0-19%).

Assay [2] relates to Amaranthus retoflexus (AMARE). The experiment in a line: Post-emergence glasshouse herbicide test. As to the method: as §1
Assay [3] deals with Echinochloa crus-galli (ECHCG). The experiment in a line: Post-emergence glasshouse herbicide test. As to the method:
as §1

Assay [4] has as its system Ipomoea hederacea (IPOHE). In words: Post-emergence glasshouse herbicide test. As to the method: as §1
In assay [5] the test system is Setaria faberi (SETFA). In words: Post-emergence glasshouse herbicide test. As to the method:
as §1

Assay [6] concerns Abutilon theophrasti (ABUTH). The experiment in a line: Pre-emergence glasshouse herbicide test. As to the method: as §1
In assay [7] the test system is Amaranthus retoflexus (AMARE). The experiment in a line: Pre-emergence glasshouse herbicide test. As to the method: as §1
Assay [8] has as its system Echinochloa crus-galli (ECHCG). In words: Pre-emergence glasshouse herbicide test. As to the method: as §1
Assay [9] relates to Ipomoea hederacea (IPOHE). In words: Pre-emergence glasshouse herbicide test. As to the method: as §1
For assay [10], the system named is Setaria faberi (SETFA). The experiment in a line: Pre-emergence glasshouse herbicide test. As to the method: as §1

Regarding `CCS(=O)(=O)c1c(OCC(F)(F)F)ccc(C(=O)Nc2nnnn2C)c1Cl` [Compound 1.035], the “percentage damage caused to the plant, ABUTH” value in [1] and in assay [6] was 5 (5=80-100%) throughout. In addition, the “percentage damage caused to the plant, AMARE” value in assay [2] and in assay [7] was 5 (5=80-100%) throughout. In addition, the “percentage damage caused to the plant, ECHCG” value in [3] and in assay [8] was 5 (5=80-100%) each time. Further, the “percentage damage caused to the plant, IPOHE” value in assay [4] and in [9] was 5 (5=80-100%) in each case. Moreover, the “percentage damage caused to the plant, SETFA” value in assay [5] and in assay [10] was 5 (5=80-100%) throughout.
For `CC[S+]([O-])c1c(OCC(F)(F)F)ccc(C(=O)Nc2nnnn2C)c1Cl` (centres unmarked) [Compound 1.036], the “percentage damage caused to the plant, ABUTH” value in assay [1] and in [6] was 5 (5=80-100%) throughout. For the same molecule, the “percentage damage caused to the plant, AMARE” value in [2] and in assay [7] was 5 (5=80-100%) in each case. In addition, the “percentage damage caused to the plant, ECHCG” value in [3] and in [8] was 5 (5=80-100%) throughout. The figures for the “percentage damage caused to the plant, IPOHE” value in assay [4] and in [9] were 5 (5=80-100%) and 4 (4=60-79%), respectively. Besides, the “percentage damage caused to the plant, SETFA” value in assay [5] and in assay [10] was 5 (5=80-100%) in each case.
With `CCSc1c(OCC(F)(F)F)ccc(C(=O)Nc2nnnn2C)c1Cl` [Compound 1.037], the “percentage damage caused to the plant, ABUTH” value in [1] is listed as 5 (5=80-100%); in assay [6], 3 (3=40-59%). Also, the “percentage damage caused to the plant, AMARE” value in assay [2] and in assay [7] was 5 (5=80-100%) throughout. For the same molecule, the results for the “percentage damage caused to the plant, ECHCG” value in assay [3] and in assay [8] were 5 (5=80-100%) and 4 (4=60-79%), respectively. The “percentage damage caused to the plant, IPOHE” value in assay [4] is reported as 3 (3=40-59%); in assay [9], 1 (1=0-19%). Further, the “percentage damage caused to the plant, SETFA” value is 5 (5=80-100%) in assay [5] and 3 (3=40-59%) in assay [10].
For the molecule `CCSc1c(OCC(F)(F)F)ccc(C(=O)Nc2nnnn2C)c1C` [Compound 1.038], the results for the “percentage damage caused to the plant, ABUTH” value in assay [1] and in assay [6] were 5 (5=80-100%) and 4 (4=60-79%), respectively. In addition, the “percentage damage caused to the plant, AMARE” value in assay [2] and in assay [7] was 5 (5=80-100%) each time. The “percentage damage caused to the plant, ECHCG” value in assay [3] is recorded as 5 (5=80-100%); in [8] it was 2 (2=20-39%). For the same molecule, the results for the “percentage damage caused to the plant, IPOHE” value in assay [4] and in [9] were 4 (4=60-79%) and 2 (2=20-39%), respectively. Moreover, the results for the “percentage damage caused to the plant, SETFA” value in assay [5] and in assay [10] were 5 (5=80-100%) and 2 (2=20-39%), respectively.
In the case of `CC[S+]([O-])c1c(OCC(F)(F)F)ccc(C(=O)Nc2nnnn2C)c1C` (centres unmarked) [Compound 1.039], the “percentage damage caused to the plant, ABUTH” value in assay [1] and in assay [6] was 5 (5=80-100%) throughout. The “percentage damage caused to the plant, AMARE” value in assay [2] and in assay [7] was 5 (5=80-100%) throughout. Also, the “percentage damage caused to the plant, ECHCG” value in [3] is 5 (5=80-100%); in [8] it was 4 (4=60-79%). Also, the “percentage damage caused to the plant, IPOHE” value in assay [4] and in [9] was 4 (4=60-79%) throughout. Further, the “percentage damage caused to the plant, SETFA” value is recorded as 5 (5=80-100%) in assay [5] and 4 (4=60-79%) in [10].
On to `CCS(=O)(=O)c1c(OCC(F)(F)F)ccc(C(=O)Nc2nnnn2C)c1C` [Compound 1.040], for which the “percentage damage caused to the plant, ABUTH” value in [1] and in assay [6] was 5 (5=80-100%) in each case. Besides, the “percentage damage caused to the plant, AMARE” value in assay [2] and in assay [7] was 5 (5=80-100%) throughout. For the same molecule, the “percentage damage caused to the plant, ECHCG” value in [3] and in [8] was 5 (5=80-100%) in each case. Besides, the “percentage damage caused to the plant, IPOHE” value in assay [4] and in assay [9] was 5 (5=80-100%) throughout. The “percentage damage caused to the plant, SETFA” value in assay [5] and in assay [10] was 5 (5=80-100%) throughout.
Turning to `CCn1nnnc1NC(=O)c1ccc(OC(F)(F)F)c(S(=O)(=O)CC)c1C` [Compound 1.046], the “percentage damage caused to the plant, ABUTH” value in assay [1] and in [6] was 5 (5=80-100%) throughout. In addition, the “percentage damage caused to the plant, AMARE” value in [2] and in assay [7] was 5 (5=80-100%) throughout. Also, the “percentage damage caused to the plant, ECHCG” value in [3] and in assay [8] was 5 (5=80-100%) each time. Besides, the “percentage damage caused to the plant, IPOHE” value in [4] and in assay [9] was 5 (5=80-100%) in each case. The “percentage damage caused to the plant, SETFA” value in [5] and in assay [10] was 5 (5=80-100%) throughout.
As for `CCn1nnnc1NC(=O)c1ccc(OC(F)(F)F)c(S(=O)(=O)CC)c1Cl` [Compound 1.047], the “percentage damage caused to the plant, ABUTH” value in assay [1] and in assay [6] was 5 (5=80-100%) each time. In addition, the “percentage damage caused to the plant, AMARE” value in assay [2] and in assay [7] was 5 (5=80-100%) each time. For the same molecule, the “percentage damage caused to the plant, ECHCG” value in assay [3] and in assay [8] was 5 (5=80-100%) in each case. The “percentage damage caused to the plant, IPOHE” value in [4] and in [9] was 5 (5=80-100%) throughout. Besides, the “percentage damage caused to the plant, SETFA” value in [5] and in assay [10] was 5 (5=80-100%) in each case.
Turning to `CCn1nnnc1NC(=O)c1ccc(OC(F)F)c(S(=O)(=O)CC)c1C` [Compound 1.048], the “percentage damage caused to the plant, ABUTH” value in assay [1] and in [6] was 5 (5=80-100%) throughout. Moreover, the “percentage damage caused to the plant, AMARE” value in assay [2] and in [7] was 5 (5=80-100%) throughout. Also, the “percentage damage caused to the plant, ECHCG” value in assay [3] and in [8] was 5 (5=80-100%) throughout. In addition, the “percentage damage caused to the plant, IPOHE” value in [4] and in [9] was 5 (5=80-100%) throughout. Further, the “percentage damage caused to the plant, SETFA” value in [5] and in assay [10] was 5 (5=80-100%) throughout.
As for `CCn1nnnc1NC(=O)c1ccc(OC(F)F)c(S(=O)(=O)CC)c1Cl` [Compound 1.049], the “percentage damage caused to the plant, ABUTH” value in assay [1] and in assay [6] was 5 (5=80-100%) throughout. Moreover, the “percentage damage caused to the plant, AMARE” value in assay [2] and in assay [7] was 5 (5=80-100%) throughout. Moreover, the “percentage damage caused to the plant, ECHCG” value in [3] and in assay [8] was 5 (5=80-100%) in each case. Also, the “percentage damage caused to the plant, IPOHE” value in assay [4] is 4 (4=60-79%); in assay [9], 5 (5=80-100%). Also, the “percentage damage caused to the plant, SETFA” value in [5] and in assay [10] was 5 (5=80-100%) in each case.
In the case of `CCCS(=O)(=O)c1c(OC(F)F)ccc(C(=O)Nc2nnnn2C)c1Cl` [Compound 1.050], the “percentage damage caused to the plant, ABUTH” value in [1] and in [6] was 5 (5=80-100%) throughout. Moreover, the “percentage damage caused to the plant, AMARE” value in assay [2] and in assay [7] was 5 (5=80-100%) each time. In addition, the “percentage damage caused to the plant, ECHCG” value in assay [3] and in assay [8] was 5 (5=80-100%) each time. In addition, the “percentage damage caused to the plant, IPOHE” value in assay [4] is listed as 4 (4=60-79%); in assay [9] it was 3 (3=40-59%). Further, the “percentage damage caused to the plant, SETFA” value in [5] and in [10] was 5 (5=80-100%) throughout.
